Series [1] concerns recombinant human protein kinases. Description: Kinex kinase assay system (inhibition of ATP binding). The note with it: tested at 1 and 10 μM. How it is done:
Kinase assay system #2. The Kinex™ kinase assay system (Kinexus Proteomics Company). This platform uses recombinant human protein kinases expressed in an insect expression system, thus allowing an avenue for post-translational modification. Also, this platform measures inhibition of ATP binding. This platform putatively measured 200 different kinases, and we tested KBU2046 at 1 and 10 μM. […] There were two important technical issues. First, at 10 μM KBU2046 interfered with the colorimetric-based readout of the assay. […] Conclusions: there was no evidence that KBU2046 inhibits kinase function by competing for ATP binding in the active site.

Another series deals with T1, estrogen receptor (ER) (Homo sapiens, UniProt P03372).
T1 construct: estrogen receptor positive MCF-7 cells; endogenous in cells; host or cells: MCF-7
In words: pERE-Luc estrogen receptor reporter assay in MCF-7 cells. The note with it: 24 hours, micromolar concentrations. It is filed as cell-based. The text has this: Values are the mean±SD of a single experiment, with similar results seen in a separate repeat experiment, both in replicates of N=2.
Constructs, Transfection, and Luciferase Assays. Constructs were purchased or gifts: constitutive active MEK4EE (MAP2K4-EE; residues 37-399; Addgene, plasmid 14813), pRL-TK-Renilla luciferase (Promega), pCMV-β-galactosidase (Agilent Technologies), and pcDNA-GFP (Invitrogen), HSP90β was from Pawel Bieganowski (Mossakowski Medical Research Center PAS, Poland) (Zurawska, A. et al., Biochim Biophys Acta 1803, 575-83 (2010)), estrogen responsive promoter-luciferase reporter construct, pERE-Luc, was from Craig Jordan (Georgetown University) (Catherino, W. H. et al., Cancer Lett 92, 39-47 (1995)), human CDC37 in pET15b plasmid was from Avrom Caplan (City College of New York) (Rao, J. et al., J Biol Chem 276, 5814-20 (2001)). siRNA used Dharmacon ON-Targetplus SMARTpool™ siRNA directed against HSP90β (cat #L-005187-00-0010) non-targeting siRNA (cat #D-001810-10-05), used TransIT-LT1 Transfection Reagent (Mirus Bio LLC), or with Dharmafect Duo (Thermo Scientific, Lafayette, Colo.) for co-delivery of plasmid. Luciferase assays were performed as described (Breen, M. J. et al., PLoS One 8, e72407 (2013)).
Luciferase activity was measured, normalized to that of β-gal, and values expressed as the percent of untreated vector control cells.
In general terms: A reporter such as luciferase makes a cellular process visible.

Series [2] concerns the target T2, phosphorylation of HSP90β (Homo sapiens, UniProt P08238+Q16543).
T2 construct: MAP3K6: Abnova SGK3: #PV3859; MAP3K6: #P5592; host or cells: E. coli for HSP90β and CDC37
In words: HSP90β/CDC37 heterocomplex in vitro kinase assay with SGK3 and MAP3K6. It is filed as biochemical. How it is done: HEK293T cells were transfected with 1 of 420 different protein kinases, treated with 10 μM KBU2046 (N=5 replicates) or vehicle control (N=5) for three days, and LUMIER assays performed. The N=17 kinases that gave significant findings (Student's t-test <0.05) in the same direction in each of two separate experiments are depicted. Each separate treatment and kinase condition in each of two separate experiments was conducted in replicates of N=5. […] FIGS. 6c and 6d show the results of the wound healing assay. PC3 cells were transfected with siRNA targeting RAF1 (si-Raf1) or non-targeting siRNA (si-control), treated with KBU2046 or vehicle as above, and RAF1 protein measured by Western blot (c) and effects upon wound healing measured (d). […] Purified recombinant HSP90β, CDC37, and RAF1 were combined with KBU2046, as indicated, incubated in an in vitro kinase assay for the indicated times, and Western blot for RAF1-Ser^338 phosphorylation performed. FIGS. 6f and 6g show the effect on HSP90β/CDC37 heterocomplex formation and function in vitro. Purified recombinant HSP90β, CDC37, RAF1, SGK3 or MAP3K6 were combined and treated with KBU2046 or vehicle control, as indicated, incubated in an in vitro kinase assay for the indicated times, and Western blot performed, as denoted. Experiments were repeated at separate times at least once, with similar results. […]

Series [3] is described as follows: Histologic examination of tissue / systemic off-target effects. The series is classed as in vivo, Balb/c athymic mice. How it is done:
Histologic examination of tissue. Organs of athymic male mice stained with H&E, Trichrome or Giemsa were microscopically examined by a mouse pathologist in a blinded fashion, and toxicity scored using an established semi-quantitative histological scoring system (Knodell, R. G. et al., Hepatology 1, 431-5 (1981)) (FIG. 14). The following clinical chemistry parameters were measured in blood of CD1 male and female mice by Charles River Research Animal Diagnostic Services: cholesterol, triglycerides, alanine aminotransferase (ALT), aspartate aminotransferase (AST), total bilirubin, glucose, phosphorus, total protein, calcium, blood urea nitrogen (BUN), creatinine, albumin, Na, K, Cl, white blood cells (with differential), red blood cells, hemoglobin, and platelets.
After 35 days of treatment, the following organs were harvested at necropsy, and stained with H&E (alternative staining methods as indicated): heart, lungs, esophagus, stomach, colon, small intestine, liver (Trichrome staining), kidneys (Trichrome staining), adrenals, bladder, prostate, spleen, pancreas, brain, testes, and bone marrow and peripheral blood (Giemsa staining). Organs were examined for damage using a semi-quantitative histological scoring system, as described (Knodell, R. G. et al., Hepatology 1, 431-5 (1981)). […] Note that mice were immunocompromised, and that changes in the liver reflected episodic and minor foci of necrosis, consistent with a prior resolved infection; clinically, mice were all healthy. The graph above depicts the scoring of liver lesions, with each data point representing a single mouse.

T2 sequence (P08238 2-724): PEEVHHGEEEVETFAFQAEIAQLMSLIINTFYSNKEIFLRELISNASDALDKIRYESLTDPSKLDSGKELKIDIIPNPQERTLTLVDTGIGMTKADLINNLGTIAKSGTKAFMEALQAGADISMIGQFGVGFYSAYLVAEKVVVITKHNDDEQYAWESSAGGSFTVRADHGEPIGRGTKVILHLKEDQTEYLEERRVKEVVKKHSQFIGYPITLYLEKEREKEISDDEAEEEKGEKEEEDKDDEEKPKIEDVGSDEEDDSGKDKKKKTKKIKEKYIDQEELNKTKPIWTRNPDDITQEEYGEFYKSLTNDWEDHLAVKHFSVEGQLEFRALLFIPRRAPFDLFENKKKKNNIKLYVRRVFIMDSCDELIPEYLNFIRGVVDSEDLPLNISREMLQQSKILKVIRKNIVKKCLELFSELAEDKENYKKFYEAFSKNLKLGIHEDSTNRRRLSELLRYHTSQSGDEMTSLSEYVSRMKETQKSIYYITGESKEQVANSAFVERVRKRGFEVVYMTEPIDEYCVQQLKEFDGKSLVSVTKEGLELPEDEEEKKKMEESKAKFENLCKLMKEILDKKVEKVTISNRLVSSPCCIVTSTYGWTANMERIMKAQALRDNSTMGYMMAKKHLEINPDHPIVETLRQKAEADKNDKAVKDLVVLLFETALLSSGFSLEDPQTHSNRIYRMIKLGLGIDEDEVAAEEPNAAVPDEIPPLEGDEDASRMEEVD
T2 sequence (Q16543 whole entry): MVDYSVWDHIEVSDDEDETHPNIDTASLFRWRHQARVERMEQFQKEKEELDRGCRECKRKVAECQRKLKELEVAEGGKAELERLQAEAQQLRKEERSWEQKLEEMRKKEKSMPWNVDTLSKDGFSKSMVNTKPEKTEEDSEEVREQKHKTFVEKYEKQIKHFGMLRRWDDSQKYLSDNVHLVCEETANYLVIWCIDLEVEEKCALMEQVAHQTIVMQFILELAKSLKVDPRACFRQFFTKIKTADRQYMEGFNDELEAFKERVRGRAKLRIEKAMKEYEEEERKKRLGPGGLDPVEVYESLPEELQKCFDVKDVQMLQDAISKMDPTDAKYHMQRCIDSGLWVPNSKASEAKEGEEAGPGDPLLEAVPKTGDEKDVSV
T1 sequence (P03372 whole entry): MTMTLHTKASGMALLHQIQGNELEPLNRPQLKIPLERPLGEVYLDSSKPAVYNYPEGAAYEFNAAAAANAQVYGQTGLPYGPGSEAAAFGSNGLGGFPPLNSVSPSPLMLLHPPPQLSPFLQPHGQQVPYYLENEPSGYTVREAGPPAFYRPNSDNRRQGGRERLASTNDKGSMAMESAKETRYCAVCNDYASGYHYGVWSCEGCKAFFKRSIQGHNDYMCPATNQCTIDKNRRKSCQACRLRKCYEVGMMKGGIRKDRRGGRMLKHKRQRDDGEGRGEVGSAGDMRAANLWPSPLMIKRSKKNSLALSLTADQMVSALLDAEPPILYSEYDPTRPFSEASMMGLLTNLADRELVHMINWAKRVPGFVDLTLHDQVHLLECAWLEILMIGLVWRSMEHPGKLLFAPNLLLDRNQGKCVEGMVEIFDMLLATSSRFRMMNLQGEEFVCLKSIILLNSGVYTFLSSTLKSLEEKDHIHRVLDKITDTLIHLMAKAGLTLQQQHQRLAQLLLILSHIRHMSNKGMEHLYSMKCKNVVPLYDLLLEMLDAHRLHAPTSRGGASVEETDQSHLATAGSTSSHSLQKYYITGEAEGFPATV

With `O=C1c2ccccc2OCC1c1ccc(F)cc1` (racemic) [KBU2046, (±)-3(4-fluorophenyl)chroman-4-one], the “inhibition of ATP binding” value in series [1] is recorded as “completely negative”. Besides, at estrogen receptor (ER), the “activation of the estrogen receptor” value is “does not activate the estrogen receptor (ER)”. In addition, the “SGK3-mediated phosphorylation of HSP90β” value in series [2] (MAP3K6 added) was “also decreases in the presence of KBU2046”; in series [2] (SGK3 present) it was “phosphorylation was further increased”. Further, the “changes in the liver” value in series [3] (35 days of treatment in chow) is “not increased by KBU2046 treatment”. The “organ damage (histological scoring)” value in series [3] (35 days of treatment in chow) is “No organ damage was observed, except in the livers of both control and treatment mice”. Besides, the “off-target effects (tumor growth, behavior, weight, histology, serum chemistry)” value in series [3] (mouse, in vivo) is on record as “failed to identify KBU2046-associated off-target effects”.

The values are drawn from patent publication US20210293825A1, “METHODS FOR PRECISION THERAPEUTIC TARGETING OF HUMAN CANCER CELL MOTILITY AND KITS THEREOF” (UNITED STATES GOVERNMENT AS REPRESENTED BY THE DEPARTMENT …, priority 2018, published 2021).
